Test results from US20250099433A1, “COMPOSITION AND METHOD FOR TREATMENT OF GRAM NEGATIVE BACTERIAL INFECTION” (The Research Foundation for the State University of New York, priority 2021, published 2025).
Converted amounts (≈) assume the structure as drawn. “And” between values parts separate entries of the source, which are not always exact repeats. Equal entries are not always repeated.

Legend:
LpxC from E. coli = LpxC from E. coli (Escherichia coli (strain K12), UniProt P0A725); conditions: cited from earlier work
[1] = in vivo; cited from earlier work
[2] = test system: E. coli strain (K-12, MG1655); test: MIC by microbroth dilution, wild-type E. coli; format: cell-based, Escherichia coli; conditions: wild-type E. coli K-12 MG1655
[3] = test system: FabZ*, hyperactive FabZ strain (L85P); test: microbe, parasite or virus in culture; format: cell-based, Escherichia coli; conditions: for MIC: Escherichia coli, read-out: MIC (μM) FabZ*
[4] = test system: wild-type E. coli (K-12 MG1655); test: Post-antibiotic effect (PAE) in wild-type E. coli; format: cell-based, Escherichia coli; conditions: 1:1000 dilution; for PAE (h) 1x, Wild-type: 1xMIC for 1 h; for PAE (h) 4x, Wild-type: 4xMIC for 1 h; for PAE (h) 16x, Wild-type: 16xMIC for 1 h
Text: FIG. 4. Post-antibiotic effect of the ecLpxC inhibitors on wild-type and FabZ* E. coli. […] PAE data for wild-type E. coli are in panels (a) PT805, (c) PT810 and (e) CHIR-090, and for FabZ* E. coli in (b) PT805, (d) PT810 and (f) CHIR-090.
PAE data for wild-type E. coli are in panels (a) PT805, (c) PT810 and (e) CHIR-090, and for FabZ* E. coli in (b) PT805, (d) PT810 and (f) CHIR-090.

FabZ* E. coli = format: cell-based, Escherichia coli; conditions: 1:1000 dilution; for PAE (h) 1x, FabZ*: 1xMIC for 1 h; for PAE (h) 4x, FabZ*: 4xMIC for 1 h; for PAE (h) 16x, FabZ*: 16xMIC for 1 h
Text: FIG. 4. Post-antibiotic effect of the ecLpxC inhibitors on wild-type and FabZ* E. coli.
This included use of an E. coli strain (FabZ*) containing a hyperactive mutant of the fatty acid biosynthesis O-hydroxyacyl-ACP enzyme (FabZ), and determination of PAEs for wild-type E. coli in the presence of sub-MIC concentrations of macrolides.

[5] = test system: wild-type E. coli (K12 MG1655); test: PAE in wild-type E. coli in the presence of sub-MIC azithromycin; format: cell-based, Escherichia coli; conditions: 16xMIC, 37° C.; for PAE (h) (sub-MIC AZ) 16x(0.2): then media with 0.2xMIC azithromycin; for PAE (h) (sub-MIC AZ) 16x(0.4): then media with 0.4xMIC azithromycin
Text: FIG. 6. Post-antibiotic effect in the presence of sub-MIC azithromycin.
The PAE measurements were repeated for wild-type E. coli in the presence of sub-MIC levels of the protein synthesis inhibitor azithromycin.

[6] = test system: wild-type E. coli and FabZ* E. coli; test: Time kill assays in E. coli; conditions: 4xMIC (16xMIC in FIG. 3), CaMH media, 37° C.
Description: Each time point was performed in duplicate or triplicate and the entire experiment was performed in triplicate. The data points in the figure are the mean values from the independent measurements and the error bars represent the standard deviation from the mean.
The antimicrobial activity of the compounds was examined. […] The post-antibiotic effect (PAE) of the inhibitors was measured by monitoring the regrowth of bacteria following compound washout. […] Bacterial regrowth was monitored by plating samples as a function of time after wash-out and enumerating CFUs.

P. aeruginosa PAO1 [7] = test: Time-kill assays in P. aeruginosa PAO1; conditions: PAO1, 4x, 8x and 16xMIC, CAMH media, 37° C.
Description: Time-kill assays. […] The experimental data points are the mean values from triplicate, independent measurements, and the error bars represent the standard deviation from the mean.
Time-Kill Assays. […] Cultures were shaken at 37° C. for 6 h, and 100 μL aliquots were taken at each 1 h time interval and plated in serial dilutions in a Mueller-Hinton agar plate.

P. aeruginosa PAO1 [8] = test: MIC by microbroth dilution, P. aeruginosa PAO1; conditions: Pseudomonas aeruginosa, PAO1, read-out: MIC (μM) (PAO1)
P. aeruginosa PAO1 [9] = test: Post-antibiotic effect (PAE) in P. aeruginosa PAO1; conditions: 37° C.
Description: Post-antibiotic effect of the paLpxC inhibitors on wild-type P. aeruginosa. […] The experimental data points are the mean values from triplicate, independent measurements, and the error bars represent the standard deviation from the mean.
After incubating the plates overnight at 37° C., CFUs were enumerated, and the PAE values were calculated using a standard method where the time for the bacteria to recover 1 log post drug washout compared to the control was determined (FIG. 17, Table 6).
Post-antibiotic Effect (PAE). PAEs were determined using P. aeruginosa PAO1. […] The compound was washed out by diluting the culture 1000-fold into fresh CAMH-II medium, and the regrowth of bacteria was monitored by taking 100 μL aliquots each hour and plating serial dilutions on Muller-Hinton agar plates.

[10] = test system: efflux-pump mutant strain (ΔMexABCDXY) (paEP); test: MIC by microbroth dilution, efflux-pump mutant P. aeruginosa; conditions: Pseudomonas aeruginosa, read-out: MIC (μM) (paEP)
Description: Bacterial Strains. […] The efflux-pump deficient P. aeruginosa strain (ΔMexABCDXY), N150, was derived from PAO1.
Minimum Inhibitory Concentration (MIC) Measurements.

ecLpxC = ecLpxC (Escherichia coli (strain K12), UniProt P0A725); format: binding; conditions: residence time on ecLpxC at 25° C., displacement by fluorescent ligand
Description: Compounds were preincubated with ecLpxC and then mixed with a fluorescent LpxC inhibitor PT900.

paLpxC = paLpxC (Pseudomonas aeruginosa (strain ATCC 15692 / DSM 22644 / CIP 104116 / JCM 14847 / LMG 12228 / 1C / PRS 101 / PAO1), UniProt P47205); test: biochemical; format: binding
[11] = biological target: LpxC from Aquifex aeolicus (aaLpxC) (Aquifex aeolicus (strain VF5), UniProt O67648); conditions: cited from earlier work
LpxC from Aquifex aeolicus (aaLpxC), sequence (O67648 whole entry): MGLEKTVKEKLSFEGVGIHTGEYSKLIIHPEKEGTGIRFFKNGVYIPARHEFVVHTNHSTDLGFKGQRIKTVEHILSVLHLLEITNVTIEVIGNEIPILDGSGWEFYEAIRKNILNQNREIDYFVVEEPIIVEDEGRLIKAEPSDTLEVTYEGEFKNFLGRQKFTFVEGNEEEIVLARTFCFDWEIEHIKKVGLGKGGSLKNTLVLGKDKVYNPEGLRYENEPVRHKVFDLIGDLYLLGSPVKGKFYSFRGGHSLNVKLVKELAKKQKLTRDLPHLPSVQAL

paLpxC, sequence (P47205 1-299): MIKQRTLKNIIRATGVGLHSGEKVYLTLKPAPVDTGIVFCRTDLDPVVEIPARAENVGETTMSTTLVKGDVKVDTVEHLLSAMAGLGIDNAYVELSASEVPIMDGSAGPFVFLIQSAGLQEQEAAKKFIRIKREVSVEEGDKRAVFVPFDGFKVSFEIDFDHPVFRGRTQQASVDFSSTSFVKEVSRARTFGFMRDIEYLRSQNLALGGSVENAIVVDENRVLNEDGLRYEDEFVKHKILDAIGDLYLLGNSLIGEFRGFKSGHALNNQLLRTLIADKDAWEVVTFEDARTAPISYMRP
LpxC from E. coli, sequence (P0A725 whole entry): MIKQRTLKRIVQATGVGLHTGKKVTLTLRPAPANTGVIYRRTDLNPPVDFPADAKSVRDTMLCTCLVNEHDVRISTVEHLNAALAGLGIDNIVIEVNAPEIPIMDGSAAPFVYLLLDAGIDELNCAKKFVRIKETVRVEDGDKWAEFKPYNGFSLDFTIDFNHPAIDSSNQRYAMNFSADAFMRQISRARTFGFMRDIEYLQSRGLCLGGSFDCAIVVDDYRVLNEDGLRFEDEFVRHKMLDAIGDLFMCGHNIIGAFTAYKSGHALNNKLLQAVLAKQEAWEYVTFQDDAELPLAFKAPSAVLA

Compound	MIC ([2]; Escherichia coli)	MIC [3]	PAE (h) 1x, Wild-type [4]	PAE (h) 4x, Wild-type [4]	PAE (h) 16x, Wild-type [4]	PAE (h) 1x, FabZ* (FabZ* E. coli)	PAE (h) 4x, FabZ* (FabZ* E. coli)	PAE (h) 16x, FabZ* (FabZ* E. coli)	PAE (h) (sub-MIC AZ) 16x(0.2) [5]	PAE (h) (sub-MIC AZ) 16x(0.4) [5]	reduction of the starting log CFU/mL of the bacterial culture [6]	MIC (P. aeruginosa PAO1 [8])	MIC [10]	tR (ecLpxC)	further results
CC(O)(C(F)F)C(NC(=O)c1ccc(C#CC#Cc2ccc(N)cc2)cc1)C(=O)NO (centres unmarked) [LPC-058]															residence time on LpxC from E. coli (LpxC from E. coli): ~12 h
CC(C)(N)[C@H](NC(=O)c1ccc(C#CC#C[C@@H]2C[C@H]2CO)cc1)C(=O)NO [ACHN-975]															toxicity in clinical trials [1]: dose-limiting cardiovascular toxicity
CC(CCn1ccc(-c2ccc(-n3nccn3)cc2)cc1=O)(C(=O)NO)S(C)(=O)=O (racemic) [PT805, 4-(4-(4-(2H-1,2,3-Triazol-2-yl)phenyl)-2-oxopyridin-1(2H)-yl)-N-hydroxy-2-methyl-2-(methylsulfonyl)butanamide]	0.16 µM (≈ 0.069 µg/mL)	0.019 µM (≈ 0.0082 µg/mL)	0 h	0 h	0 h	0.8 ± 0.1 h	1.53 ± 0.13 h and 1.5 ± 0.1 h	2.1 ± 0.2 h	1.4 ± 0.1 h	2.4 ± 0.1 h	greater than 3 logs	1.56 µM (≈ 0.673 µg/mL)	0.4 µM (≈ 0.173 µg/mL)		reduction of the starting log CFU/mL of the bacterial culture (P. aeruginosa PAO1 [7]): more than 3 logs; PAE (h) 4x (P. aeruginosa PAO1 [9]; PAO1, 4xMIC for 1 h): 1.4 ± 0.1 h; PAE (h) 8x (P. aeruginosa PAO1 [9]; PAO1, 8xMIC for 1 h): 2.2 ± 0.3 h; PAE (h) 16x (P. aeruginosa PAO1 [9]; PAO1, 16xMIC for 1 h): 3.4 ± 0.2 h
CC(CCn1ccc(-c2ccc(-c3cn(Cc4ccccc4)nn3)cc2)cc1=O)(C(=O)NO)S(C)(=O)=O (racemic) [PT810, 4-(4-(4-(1-Benzyl-1H-1,2,3-triazol-4-yl)phenyl)-2-oxopyridin-1(2H)-yl)-N-hydroxy-2-methyl-2-(methylsulfonyl)butanamide]	0.17 µM (≈ 0.0887 µg/mL)	0.08 µM (≈ 0.0417 µg/mL)	0 h	0 h	0 h	0.7 ± 0.2 h	0.76 ± 0.19 h and 0.8 ± 0.2 h	0.9 ± 0.2 h	1.9 ± 0.8 h	2.6 ± 0.8 h	greater than 3 logs	12.5 µM (≈ 6.52 µg/mL)	0.78 µM (≈ 0.407 µg/mL)	6 ± 3 min	Ki (paLpxC; 37° C., fluorescence competition): 10.6 ± 8.9 pM; tR (min) Fluorescence assay (paLpxC; 37° C., tR = 1/koff): 57 min and 57.3 ± 18.4 min; koff (paLpxC; read-out: Koff (s^−1)): 0.00032 ± 0.0001 s⁻¹; kon (paLpxC; read-out: Kon (μM^−1s^−1)): 43.8 ± 31.7 µM⁻¹ s⁻¹
C[C@@H](O)[C@H](NC(=O)c1ccc(C#Cc2ccc(CN3CCOCC3)cc2)cc1)C(=O)NO [CHIR-090]			0 h	0 h	0 h	0.5 ± 0.1 h	1.34 ± 0.04 h and 1.3 ± 0.3 h	2.4 ± 0.2 h	2.8 ± 0.3 h	3.7 ± 0.2 h	greater than 3 logs			66 ± 30 min	MIC [2]: 0.62 µM (≈ 0.271 µg/mL); MIC (μM) FabZ* ([3]; hyperactive FabZ strain (L85P)): 0.010 µM (≈ 0.00437 µg/mL); residence time on aaLpxC [11]: > 24 h
